Patent publication US10913774B2, “Cyclic peptide binder against oncogenic K-Ras” (California Institute of Technology, priority 2015, dated 2021)
Entries after “also recorded” stand apart in the source; their conditions may differ.

What was measured:
K-Ras G12D [1] = molecular target: T1, K-Ras G12D (Homo sapiens, UniProt P01116, G12D); assay: Western blot of K-Ras G12D protein levels in Panc 08.13 cancer cells after peptide treatment; assay type: cell-based; conditions: Panc 08.13 cells (homozygous K-Ras G12D), 30 minutes treatment, 0.3 mM
Text: Example 5. Degradation of K-Ras G12D using Cyclic Peptides. […] Proteolysis-targeting chimeras (PROTACs) using Hif and other proteins are described in Toure and Crews, 2016, Angew. Chem. Int. Ed, 55:2-10, the entire contents of which are incorporated herein by reference. The 7b-Hif PROTAC was further conjugated with the HIV-TAT cell-penetrating peptide […] (SEQ ID NO: 24).
Cell culture. Panc 08.13 cell lines were purchased from American Type Culture collection and cultured as specified by the provider.
Immunoblotting. Western blots were performed according to standard protocols. Briefly, cells were lysed with cell lysis buffer (Cell Signaling Technology) containing protease and phosphatase inhibitors (Cell Signaling Technology). Cell lysates were quantified with a Bradford protein assay (Thermo Scientific) and prepared for gel electrophoresis in Laemmli sample buffer and reducing agent. 20 μg of cell lysate were added to precast polyacrylamide gels (Bio-Rad) and proteins were separated by electrophoresis followed by transfer to PVDF membrane. Membranes were then blocked and probed with an anti-Ras or anti-Tubulin primary antibody followed by horseradish peroxidase-conjugated secondary antibody (Cell Signaling Technology). The bands were visualized by chemiluminescence (Thermo Scientific).

K-Ras G12D [2] = molecular target: T1, K-Ras G12D; assay: ELISA binding assay of biotinylated cyclic peptides to K-Ras G12D
Experimental: For ELISA assays, 1 μM of the biotinylated hit peptides were first immobilized onto Neutravidin ELISA plates (Pierce) for 2 hours at room temperature in binding buffer (TBST with 0.1% BSA). […] After washing three times with TBST the plate was then treated with a 1:1000 dilution of the anti-RAS rabbit mAb (Cell Signaling Technology) in binding buffer for thirty minutes, washed three times with TBST, incubated with anti-Rabbit-HRP secondary antibody (Cell Signaling Technology) for thirty minutes and developed with TMB substrate (KPL) for five to ten minutes. The absorbance of samples at 450 nm wavelength was measured using a spectrophotometer.

SMILES	levels of K-Ras G12D protein by Western blot (K-Ras G12D [1])	binding to K-Ras G12D in ELISA (absorbance units), result in words (K-Ras G12D [2])
CC(C)C[C@@H]1NC(=O)[C@@H](N)Cc2cn(nn2)CCCC[C@@H](C(=O)NCCCOCCOCCOCCCNC(=O)CCCC[C@@H]2SC[C@@H]3NC(=O)N[C@@H]32)NC(=O)[C@H](CCCNC(=N)N)NC(=O)[C@@H]2CCCN2C(=O)CNC(=O)[C@H](CCCNC(=N)N)NC1=O [7b5, Pra-LRGPR-Az4-PEG-Biotin]	induce proteasomal degradation of K-Ras G12D	–
CC(C)C[C@@H]1NC(=O)[C@@H](N)Cc2cn(nn2)CCCC[C@@H](C(=O)NCCCOCCOCCOCCCNC(=O)CCCC[C@@H]2SC[C@@H]3NC(=O)N[C@@H]32)NC(=O)[C@H](CCCNC(=N)N)NC(=O)[C@H](CC(=O)O)NC(=O)CNC(=O)[C@H](CCCNC(=N)N)NC1=O [7b, Pra-LRGDR-Az4-PEG-Biotin]	–	strongest binding fluorescence; also recorded: highest affinity
